Data on 66 molecules can be found in patent US11873291B2, “Quinoline cGAS antagonist compounds” (ImmuneSensor Therapeutics, Inc., priority 2020, dated 2024).

Bounds are passed on as bounds.

The target of the first test is T1, recombinant human cGAS (aa147-522) (Homo sapiens, UniProt Q8N884).
T1 construct: recombinant human cGAS (aa147-522); His6-SUMO (cleaved yes); made in house; host or cells: E. coli BL21/pLys
T1 sequence (Q8N884 147-522): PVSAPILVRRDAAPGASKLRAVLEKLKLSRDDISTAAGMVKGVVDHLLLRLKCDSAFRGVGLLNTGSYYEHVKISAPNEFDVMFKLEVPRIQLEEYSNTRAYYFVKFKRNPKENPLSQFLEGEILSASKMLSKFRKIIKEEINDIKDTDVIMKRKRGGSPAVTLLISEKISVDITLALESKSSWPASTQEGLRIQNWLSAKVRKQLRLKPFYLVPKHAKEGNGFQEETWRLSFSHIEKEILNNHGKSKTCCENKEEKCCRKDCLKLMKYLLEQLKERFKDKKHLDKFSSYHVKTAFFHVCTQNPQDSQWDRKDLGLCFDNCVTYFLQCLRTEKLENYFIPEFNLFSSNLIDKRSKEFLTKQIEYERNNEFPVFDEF
In words: In vitro inhibition assay of cGAS activity (ATP consumption, KinaseGlo Max). The format is biochemical. Particulars: Table 2, read-out: cGAS Inhibition Results IC50. Summed up:
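IC50 came from plotting % ATP consumption against log compound concentration, with leftover ATP detected by KinaseGlo Max chemiluminescence. Reactions ran 20 min at 37 °C with 1.5 μg/mL human cGAS (aa147-522), 6.6 μM ATP, 0.1 mM GTP and 0.01 mg/mL DNA at pH 7.5.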
In the case of `NC(=O)C1CN(c2cc(-c3cn[nH]c3)c3ccc(Cl)c(Cl)c3n2)CCO1` (stereo not drawn) [I-371], the IC50 was under 2000 nM.

Take `C[C@H](Nc1cc(-c2cn[nH]c2)c2ccc(Cl)c(Cl)c2n1)C(=O)O` [I-181]: the concentration for half-maximal inhibition (IC50) is over 30000 nM. Still for that read-out and setting: as for `COc1c(Cl)ccc2c(-c3cn[nH]c3)cc(NCCO)nc12` [I-403], the figure is over 30000 nM; as for `O=C(CO)NC[C@@H]1CCCN1c1cc(-n2ccnc2)c2ccc(Cl)c(Cl)c2n1` [I-154, (S)—N-((1-(7,8-dichloro-4-(1H-imidazol-1-yl)quinolin-2-yl)pyrrolidin-2-yl)methyl)-2-hydroxyacetamide], under 2000 nM; as for `Cc1cc(NCCC(=O)O)c2ccc(Cl)c(Cl)c2n1` [I-309], over 30000 nM. Still for that read-out and setting: as for `O=C(O)C1CCCN(c2cc(-n3ccnc3)c3ccc(Cl)cc3n2)C1` (stereo not drawn) [I-122], the figure is 2000 to 30000 nM; as for `Nc1cccc(-c2cc(-n3ccnc3)c3ccc(Cl)cc3n2)c1` [I-8, 3-(7-chloro-4-(1H-imidazol-1-yl)quinolin-2-yl)aniline], 2000 to 30000 nM; as for `O=C(O)C1CCN(C(=O)C[C@@H]2CCCN2c2cc(-n3ccnc3)c3ccc(Cl)c(Cl)c3n2)C1` (stereo partly drawn) [I-339], under 2000 nM. Same read-out and setting: as for `NS(=O)(=O)CCNc1cc(NCC(=O)O)c2ccc(Cl)c(Cl)c2n1` [I-318, (7,8-dichloro-2-((2-sulfamoylethyl)amino)quinolin-4-yl)glycine], the figure is over 30000 nM; as for `CN(CCNS(C)(=O)=O)c1cc(-c2cn[nH]c2)c2ccc(Cl)c(Cl)c2n1` [I-235], under 2000 nM; as for `O=C(O)[C@@H]1CCCN1c1cc(-c2cn[nH]c2)nc2c(Cl)c(Cl)ccc12` [I-291], 2000 to 30000 nM. With `CCOC(=O)C1CCN(c2cc(-n3ccnc3)c3ccc(Cl)cc3n2)C1` (stereo not drawn) [I-447], the half-maximal inhibitory concentration (IC50) is over 30000 nM.

For `OCCNc1cc(-n2ccnc2)c2ccc(Cl)c(Cl)c2n1` [I-239], the 50% inhibitory concentration (IC50) was under 2000 nM.

With `O=C(O)c1cc(-c2cc(-n3ccnc3)c3ccc(Cl)cc3n2)ccc1O` [I-16, 5-(7-chloro-4-(1H-imidazol-1-yl)quinolin-2-yl)-2-hydroxybenzoic acid], the concentration for half-maximal inhibition (IC50) was over 30000 nM.

Regarding `NS(=O)(=O)CC1CCCCN1c1cc(-n2ccnc2)c2ccc(Cl)c(Cl)c2n1` (stereo not drawn) [I-368], the half-maximal inhibitory concentration (IC50) lay within 2000 to 30000 nM.

`O=P(O)(O)CCNc1cc(-n2ccnc2)c2ccc(Cl)c(Cl)c2n1` [I-250]: the IC50 was under 2000 nM. Regarding `NS(=O)(=O)CCNc1cc(-c2cn[nH]c2)c2cc(Cl)cc(Cl)c2n1` [I-264], the IC50 is under 2000 nM.

As for `O=C(O)[C@@H]1C[C@@H](C2CCCCC2)CN1c1cc(-c2cn[nH]c2)c2ccc(Cl)c(Cl)c2n1` [I-439], the IC50 fell in the range of 2000 to 30000 nM.

Turning to `CS(=O)(=O)NC[C@@H]1CCCN1c1cc(-n2ccnc2)c2ccc(Cl)c(Cl)c2n1` [I-151], the IC50 was under 2000 nM. On to `O=C(O)CNC(=O)C[C@@H]1CCCN1c1cc(-n2ccnc2)c2ccc(Cl)c(Cl)c2n1` [I-156, (S)-(2-(1-(7,8-dichloro-4-(1H-imidazol-1-yl)quinolin-2-yl)pyrrolidin-2-yl)acetyl)glycine], for which the IC50 was under 2000 nM. Same read-out and setting: as for `O=C(CO)N1CCN(c2cc(-n3ccnc3)c3ccc(Cl)cc3n2)CC1` [I-77, 1-(4-(7-chloro-4-(1H-imidazol-1-yl)quinolin-2-yl)piperazin-1-yl)-2-hydroxyethan-1-one], the figure is over 30000 nM; as for `COc1c(Cl)ccc2c(NCCO)cc(-c3cn[nH]c3)nc12` [I-401], over 30000 nM. On the same count and under the same terms, as for `Oc1cc(-c2cc(-n3ccnc3)c3ccc(Cl)cc3n2)ccn1` [I-59], the figure is over 30000 nM; as for `CN(CCNS(=O)(=O)C1CC1)c1cc(-n2ccnc2)c2ccc(Cl)cc2n1` [I-226, N-(2-((7-chloro-4-(1H-imidazol-1-yl)quinolin-2-yl)(methyl)amino)ethyl)cyclopropanesulfonamide], 2000 to 30000 nM; as for `O=C(O)CN(CC(=O)O)c1cc(-n2ccnc2)c2ccc(Cl)c(Cl)c2n1` [I-174], under 2000 nM. Still for that read-out and setting: as for `Cc1cc(NCC(N)=O)c2ccc(Cl)c(Cl)c2n1` [I-313], the figure is over 30000 nM; as for `O=C(O)c1cccc(COc2cc(-n3ccnc3)c3ccc(Cl)cc3n2)c1` [I-281], 2000 to 30000 nM; as for `O[C@H]1CCCN(c2cc(-n3ccnc3)c3ccc(Cl)c(Cl)c3n2)C1` [I-133], under 2000 nM. Consider `O=C(O)[C@@H]1CCCCN1c1cc(-c2cn[nH]c2)c2ccc(Cl)c(Cl)c2n1` [I-128], for which the half-maximal inhibitory concentration (IC50) was 2000 to 30000 nM. Regarding `O=C(O)[C@H]1CCCN(c2cc(-n3ccnc3)c3ccc(Cl)cc3n2)C1` [I-331], the 50% inhibitory concentration (IC50) was 2000 to 30000 nM. For `Cc1cc(N(C)CC(N)=O)c2ccc(Cl)c(Cl)c2n1` [I-314], the IC50 is over 30000 nM. Still for that read-out and setting: as for `O=c1[nH]c(=O)c2ccc(S(=O)(=O)NC[C@@H]3CCCN3c3cc(-n4ccnc4)c4ccc(Cl)c(Cl)c4n3)cc2[nH]1` [I-392], the figure is 2000 to 30000 nM. Same read-out and setting: as for `Brc1ccc2c(-n3ccnc3)ccnc2c1` [I-412], the figure is 2000 to 30000 nM; as for `O=C(O)[C@H]1CCCN1c1cc(-n2ccnc2)c2ccc(Cl)c(Cl)c2n1` [I-374], under 2000 nM; as for `Clc1ccc2c(-n3ccnc3)cc(OCCN3CCOCC3)nc2c1` [I-279], over 30000 nM.

Turning to `NC(=O)CCNc1cc(-c2cn[nH]c2)c2ccc(Cl)c(Cl)c2n1` [I-190], the half-maximal inhibitory concentration (IC50) is under 2000 nM. For `CN(C)S(=O)(=O)CCNc1cc(-n2ccnc2)c2ccc(Cl)c(Cl)c2n1` [I-202], the IC50 is under 2000 nM.

As for `NS(=O)(=O)OCC1CN(c2cc(-n3ccnc3)c3ccc(Cl)c(Cl)c3n2)CCO1` (stereo not drawn) [I-96], the 50% inhibitory concentration (IC50) is under 2000 nM.

For the molecule `C[C@@]1(CO)CCCN1c1cc(-n2ccnc2)c2ccc(Cl)c(Cl)c2n1` [I-143], the IC50 is under 2000 nM.

The test is the same for the next values; noted with them: Table 3, read-out: cGAS Inhibition Results IC50.
Consider `O=C1NCC2CCC1N2c1cc(-n2ccnc2)c2ccc(Cl)c(Cl)c2n1` (stereo not drawn) [I-503], for which the concentration for half-maximal inhibition (IC50) is under 2000 nM. On the same count and under the same terms, as for `O=C(O)C1CC2CCC1N2c1cc(-n2ccnc2)c2ccc(Cl)c(Cl)c2n1` (stereo not drawn) [I-494], the figure is under 2000 nM; as for `CN(CCNC(=O)CO)c1cc(-n2ccnc2)c2ccc(Cl)c(Cl)c2n1` [I-613], under 2000 nM; as for `CN(CCNC(=O)C1CCCC1C(=O)O)c1cc(-n2ccnc2)c2ccc(Cl)c(Cl)c2n1` (stereo not drawn) [I-622], under 2000 nM. Take `COC(=O)c1ccc(S(=O)(=O)NCCN(C)c2cc(-n3ccnc3)c3ccc(Cl)c(Cl)c3n2)cc1` [I-611]: the IC50 is over 30000 nM. As for `CC(C)(C)OC(=O)[C@H]1CCCN1C(=O)C[C@@H]1CCCN1c1cc(-n2ccnc2)c2ccc(Cl)c(Cl)c2n1` [I-522], the 50% inhibitory concentration (IC50) was 2000 to 30000 nM. Still for that read-out and setting: as for `CN(CCS(=O)(=O)N1CCCCC1C(=O)O)c1cc(-n2ccnc2)c2ccc(Cl)c(Cl)c2n1` (stereo not drawn) [I-629], the figure is under 2000 nM; as for `COC(=O)C(O)[C@@H]1CCCN1c1cc(-n2ccnc2)c2ccc(Cl)c(Cl)c2n1` (stereo partly drawn) [I-662], 2000 to 30000 nM; as for `OC1CC2CCC(C1)N2c1cc(-n2ccnc2)c2ccc(Cl)c(Cl)c2n1` (stereo not drawn) [I-490], under 2000 nM. The same measure, in the same setting: as for `CN(CCS(=O)(=O)NC1CCC(C(=O)O)C1)c1cc(-n2ccnc2)c2ccc(Cl)c(Cl)c2n1` (stereo not drawn) [I-625], the figure is under 2000 nM; as for `O=C(C[C@@H]1CCCN1c1cc(-n2ccnc2)c2ccc(Cl)c(Cl)c2n1)N[C@@H](C(=O)O)c1ccccc1` [I-528], over 30000 nM.

For the molecule `N[C@@H]1C[C@@H](C(=O)O)N(c2cc(-n3ccnc3)c3ccc(Cl)c(Cl)c3n2)C1` [I-519], the half-inhibitory concentration (IC50) was under 2000 nM. The same measure, in the same setting: as for `NC(=O)CNC(=O)[C@@H]1CCCN1c1cc(-n2ccnc2)c2ccc(Cl)c(Cl)c2n1` [I-608], the figure is 2000 to 30000 nM. Still for that read-out and setting: as for `O=C(O)CCS(=O)(=O)N[C@@H]1C[C@@H](C(=O)O)N(c2cc(-n3ccnc3)c3ccc(Cl)c(Cl)c3n2)C1` [I-512], the figure is under 2000 nM; as for `O=C(O)CCOC(C(=O)O)[C@@H]1CCCN1c1cc(-n2ccnc2)c2ccc(Cl)c(Cl)c2n1` (stereo partly drawn) [I-818], 2000 to 30000 nM. Take `O=C(O)c1ccnn1C[C@@H]1CCCN1c1cc(-n2ccnc2)c2ccc(Cl)c(Cl)c2n1` [I-727, (S)-1-((1-(7,8-dichloro-4-(1H-imidazol-1-yl)quinolin-2-yl)pyrrolidin-2-yl)methyl)-1H-pyrazole-5-carboxylic acid]: the IC50 is under 2000 nM. Same read-out and setting: as for `O=C(O)C1CCCN(C(=O)[C@@H]2CCCN2c2cc(-n3ccnc3)c3ccc(Cl)c(Cl)c3n2)C1` (stereo partly drawn) [I-546], the figure is 2000 to 30000 nM. Regarding `O=C(O)[C@@H]1C[C@H](O)CN1c1cc(-n2ccnc2)c2ccc(Cl)c(Cl)c2n1` [I-455], the half-maximal inhibitory concentration (IC50) is under 2000 nM. The same measure, in the same setting: as for `O=C(O)CCOC[C@H]1CCN(c2cc(-n3ccnc3)c3ccc(Cl)c(Cl)c3n2)C1` [I-772], the figure is 2000 to 30000 nM. `CN(CCC(=O)O)C[C@@H]1CCCN1c1cc(-n2ccnc2)c2ccc(Cl)c(Cl)c2n1` [I-754, (S)-3-(((1-(7,8-dichloro-4-(1H-imidazol-1-yl)quinolin-2-yl)pyrrolidin-2-yl)methyl)(methyl)amino)propanoic acid]: the IC50 is 2000 to 30000 nM. The same measure, in the same setting: as for `CN(CCNC(=O)c1cccc(C(=O)O)c1)c1cc(-n2ccnc2)c2ccc(Cl)c(Cl)c2n1` [I-620], the figure is 2000 to 30000 nM; as for `O=C(O)[C@@H]1CSCN1c1cc(-n2ccnc2)c2ccc(Cl)c(Cl)c2n1` [I-485], under 2000 nM; as for `CN(CCNS(=O)(=O)CCC(=O)O)c1cc(-n2ccnc2)c2ccc(Cl)c(Cl)c2n1` [I-617], under 2000 nM. Same read-out and setting: as for `CC(C)[C@H](NC(=O)C[C@@H]1CCCN1c1cc(-n2ccnc2)c2ccc(Cl)c(Cl)c2n1)C(=O)O` [I-526], the figure is under 2000 nM; as for `CC(C)N(CCCOc1ccccc1C(=O)O)c1cc(-n2ccnc2)c2ccc(Cl)c(Cl)c2n1` [I-852], 2000 to 30000 nM; as for `OC[C@@H]1CC(F)(F)CN1c1cc(-n2ccnc2)c2ccc(Cl)c(Cl)c2n1` [I-504], under 2000 nM.

Regarding `Cc1cn(-c2cc(N3CCC[C@H]3COCCC(=O)O)nc3c(Cl)c(Cl)ccc23)cn1` [I-825, (S)-3-((1-(7,8-dichloro-4-(4-methyl-1H-imidazol-1-yl)quinolin-2-yl)pyrrolidin-2-yl)methoxy)propanoic acid], the IC50 is over 30000 nM.
